Test results: ChEMBL document CHEMBL1139123, “Rational design and synthesis of novel nucleotide anti-Giardia agents” (Bioorg Med Chem Lett, 2007)
pIC50: −log10 of the molar value. Values after ≈ are worked out from the molar mass of the structure shown.

Legend:
[1] = Toxicity in bovine MDBK cells; conditions: bovine (Bos taurus)
Giardia intestinalis [2] = assay: Antiprotozoal activity against Giardia lamblia WB6 assessed as inhibition of cyst formation at 10 uM after 4 days relative to control; type: functional; conditions: Giardia duodenalis, WB6, 96 h
Giardia intestinalis [3] = assay: Antiprotozoal activity against Giardia lamblia WB6 trophozoites after 48 hrs; type: functional; conditions: Giardia duodenalis, WB6, 48 h
[4] = Therapeutic index, ratio of IC50 for bovine MDBK cells to MIC for Giardia lamblia WB6; type: cell-based; conditions: cattle

MIC (Giardia intestinalis [3]) [µM] | SMILES | pIC50 [1] | inhibition at 10 µM (Giardia intestinalis [2]) [%] | selectivity ratio [4]
3.9 (≈ 2.16 µg/mL) | CC(=O)N[C@@H]1[C@@H](O)[C@H](O)[C@@H](CO)O[C@@H]1CCOP(=O)(O)CC[C@H]1O[C@@H](n2ccc(=O)[nH]c2=O)[C@H](O)[C@@H]1O | 3.60 | 27.5 | 64
15.6 (≈ 3.83 µg/mL) | C=CC[C@H]1O[C@H](CO)[C@@H](O)[C@H](O)[C@H]1NC(C)=O | 4.22 | 9.7 | 17
3.9 (≈ 0.972 µg/mL) | CC(=O)N[C@@H]1[C@@H](O)[C@H](O)[C@@H](CO)O[C@@H]1CCO | 3.90 | 56.2 | 32
